Experimental findings from patent US9502658B2, “Fullerene derivatives and related materials, methods, and devices” (Nano-C, Inc., priority 2013, dated 2016) are described below.

Structures are written as SMILES. Converted amounts (≈) assume the structure as drawn.

The nature of the series: Solubility in o-dichlorobenzene by UV-vis absorbance at 360 nm. Conditions: for solubility in o-dichlorobenzene: room temperature (about 22° C.).

Molecule `CCCCCCCC1c2ccccc2C(CCCCCCC)C23c4c5c6c7c8c9c(c%10c%11c2c2c4c4c%12c5c5c6c6c8c8c%13c9c9c%10c%10c%11c%11c2c2c4c4c%12c%12c5c5c6c8c6c8c%13c9c9c%10c%10c%11c2c2c4c4c%12c5c6c5c8c9c%10c2c45)C713` (centres unmarked) [Fullerene 5] registered a solubility in o-dichlorobenzene of 20 mg/mL (≈ 19.6 mM). `c1ccc2c(c1)CC13c4c5c6c7c8c9c(c%10c%11c1c1c%12c4c4c%13c5c5c7c7c8c8c%14c9c%10c9c%10c%11c1c1c%11c%12c4c4c%12c%13c5c5c7c7c8c8c%14c9c9c%10c1c1c%11c4c4c%12c5c7c5c8c9c1c45)C63C2` (centres unmarked) [oQDM-C60, reference compound] yielded a solubility in o-dichlorobenzene of 5.8 mg/mL (≈ 7.03 mM). Moreover, the “solubility in common organic solvents” value (in words, compared to the fullerenes according to the invention) was “lower solubility”.

As to `CCCCCCC1c2ccccc2C(CCCCCC)C23c4c5c6c7c8c9c(c%10c%11c2c2c4c4c%12c5c5c6c6c8c8c%13c9c9c%10c%10c%11c%11c2c2c4c4c%12c%12c5c5c6c8c6c8c%13c9c9c%10c%10c%11c2c2c4c4c%12c5c6c5c8c9c%10c2c45)C713` (centres unmarked) [Fullerene 4], the solubility in o-dichlorobenzene is 45 mg/mL (≈ 45.3 mM). On to `CCCCC1c2ccccc2C(CCCC)C23c4c5c6c7c8c9c(c%10c%11c2c2c4c4c%12c5c5c6c6c8c8c%13c9c9c%10c%10c%11c%11c2c2c4c4c%12c%12c5c5c6c8c6c8c%13c9c9c%10c%10c%11c2c2c4c4c%12c5c6c5c8c9c%10c2c45)C713` (centres unmarked) [Fullerene 3], for which the solubility in o-dichlorobenzene came to 9.3 mg/mL (≈ 9.92 mM).
